Measured values from patent US7741488B2, “Tetrahydropyridothiophenes as antiproliferative agents for the treatment of cancer” (4SC AG, priority 2005, dated 2010).

What was measured:
[1] = test system: RKO (RKOp27) human colon adenocarcinoma cells; experiment: Alamar Blue cell viability assay, anti-proliferative/cytotoxic activity on proliferating (uninduced) RKO p27 cells; type: cell-based; conditions: RKOp27, 72 h, proliferating cells without inducer Ponasterone A
Method: The anti-proliferative/cytotoxic activity of the compounds described herein, can be tested on subclones of RKO (RKOp27) human colon adenocarcinoma cells (Schmidt et al., Oncogene 19, 2423-2429; 2000) using the Alamar Blue cell viability assay (described in O'Brien et al. Eur J Biochem 267, 5421-5426, 2000). The compounds are dissolved as 20 mM solutions in dimethylsulfoxide (DMSO) and subsequently diluted in semi-logarithmic steps. DMSO dilutions are further diluted 1:100 into Dulbecco's modified Eagle's medium (DMEM) containing 10% fetal calf serum to a final concentration twice as much as the final concentration in the test. RKO subclones are seeded into 96 well flat bottom plates at a density of 4000 cells per well in a volume of 50 μl per well. 24 hours after seeding the 50 μl each of the compound dilutions in DMEM medium are added into each well of the 96 Well plate. Each compound dilution is tested as quadruplicates. Wells containing untreated control cells are filled with 50 μl DMEM medium containing 1% DMSO. The cells are then incubated with the substances for 72 hours at 37° C. in a humidified atmosphere containing 5% carbon dioxide. To determine the viability of the cells, 10 μl of an Alamar Blue solution (Biosource) are added and the fluorescence is measured at an extinction of 544 nm and an emission of 590 nm. For the calculation of the cell viability the emission value from untreated cells is set as 100% viability and the emission rates of treated cells are set in relation to the values of untreated cells. Viabilities are expressed as % values.
The corresponding IC50 values of the compounds for anti-proliferative/cytotoxic activity are determined from the concentration-effect curves.
Representative IC50 values for anti-proliferation/cytotoxicity determined in the mentioned assay follow from the following table A, in which the numbers of the compound correspond to the numbers of the examples.

[2] = test system: RKOp27 colon adenocarcinoma cells arrested by expression of ectopic p27Kip1; experiment: Alamar Blue cell viability assay on RKO p27 cells arrested by Ponasterone A induced p27Kip1 (cell cycle specific mode of action); type: cell-based; conditions: Homo sapiens, 72 hours, cells arrested by p27Kip1 induced with 10 μM Ponasterone A
Method: To determine the cell cycle specific mode of action, subclones of RKO colon adenocarcinoma cells (RKOp27 or RKOp21 as described by Schmidt et al. in Oncogene 19, 2423-2429; 2000) are seeded into 96 well flat bottom plates at a density of 16000 cells per well in a volume of 50 μl per well in DMEM growth medium with 10% FCS containing 10 μM Ponasterone A. 24 hours after seeding the 50 μl each of the compound dilutions in DMEM medium are added into each well of the 96 Well plate. Each compound dilution is tested as quadruplicates. Wells containing untreated control cells are filled with 50 μl DMEM medium containing 1% DMSO. The cells are then incubated with the substances for 72 hours at 37° C. in a humidified atmosphere containing 5% carbon dioxide. To determine the viability of the cells, 10 μl of an Alamar Blue solution (Biosource) are added and the fluorescence was measured at an extinction of 544 nm and an emission of 590 nm. For the calculation of the cell viability the emission value from untreated cells is set as 100% viability and the emission rates of treated cells are set in relation to the values of untreated cells. Viabilities are expressed as % values. Viability is compared of proliferating cells grown in the absence of the inducer Ponasterone A, versus viability of cells arrested by the expression of ectopic p27Kip1 induced by Ponasterone A.

Row | IC50 [2] [nM] | SMILES | IC50 [1] [nM]
1 | > 100000 | COc1ccccc1CCC(=O)Nc1sc2c(c1C#N)CCN(C(=O)OCc1ccncc1)C2 [Example 28, 3-Cyano-2-[3-(2-methoxy-phenyl)-propanoylamino]-4,7-dihydro-5H-thieno[2,3-c]pyridine-6-carboxylic acid pyridin-4-ylmethyl ester] | ≤ 300
2 | > 100000 | COc1cccc(CCC(=O)Nc2sc3c(c2C#N)CCN(C(=O)OCc2ccccn2)C3)c1 [Example 29, 3-Cyano-2-[3-(3-methoxy-phenyl)-propanoylamino]-4,7-dihydro-5H-thieno[2,3-c]pyridine-6-carboxylic acid pyridin-2-ylmethyl ester] | ≤ 300
3 | > 100000 | COc1ccccc1CCC(=O)Nc1sc2c(c1C#N)CCN(C(=O)OCC1COC(C)(C)O1)C2 (stereo not shown) [Example 30, 3-Cyano-2-[3-(2-methoxy-phenyl)-propanoylamino]-4,7-dihydro-5H-thieno[2,3-c]pyridine-6-carboxylic acid 2,2-dimethyl-[1,3]dioxolan-4-ylmethyl ester] | ≤ 300
4 | > 100000 | COc1ccccc1CCC(=O)Nc1sc2c(c1C#N)CCN(C(=O)OCC(O)CO)C2 (stereo not shown) [Example 32, 3-Cyano-2-[3-(2-methoxy-phenyl)-propanoylamino]-4,7-dihydro-5H-thieno[2,3-c]pyridine-6-carboxylic acid 2,3-dihydroxy-propyl ester] | ≤ 300
5 | > 100000 | CCOc1ccccc1CCC(=O)Nc1sc2c(c1C#N)CCN(C(=O)OCC(O)CO)C2 (stereo not shown) [Example 33, 3-Cyano-2-[3-(2-ethoxy-phenyl)-propanoylamino]-4,7-dihydro-5H-thieno[2,3-c]pyridine-6-carboxylic acid 2,3-dihydroxy-propyl ester] | ≤ 300
6 | > 100000 | COc1ccccc1CCC(=O)Nc1sc2c(c1C#N)CCN(C(=O)OCCO)C2 [Example 34, 3-Cyano-2-[3-(2-methoxy-phenyl)-propanoylamino]-4,7-dihydro-5H-thieno[2,3-c]pyridine-6-carboxylic acid 2-hydroxy-ethyl ester] | ≤ 300
7 | > 100000 | CCOc1ccccc1CCC(=O)Nc1sc2c(c1C#N)CCN(C(=O)OCCO)C2 [Example 35, 3-Cyano-2-[3-(2-ethoxy-phenyl)-propanoylamino]-4,7-dihydro-5H-thieno[2,3-c]pyridine-6-carboxylic acid 2-hydroxy-ethyl ester] | ≤ 300
8 | > 100000 | COc1cccc(CCC(=O)Nc2sc3c(c2C#N)CCN(C(=O)OCc2cccnc2)C3)c1 [Example 36, 3-Cyano-2-[3-(3-methoxy-phenyl)-propanoylamino]-4,7-dihydro-5H-thieno[2,3-c]pyridine-6-carboxylic acid pyridin-3-ylmethyl ester] | ≤ 300
9 | > 100000 | COc1cccc(CCC(=O)Nc2sc3c(c2C#N)CCN(C(=O)OCc2ccncc2)C3)c1 [Example 37, 3-Cyano-2-[3-(3-methoxy-phenyl)-propanoylamino]-4,7-dihydro-5H-thieno[2,3-c]pyridine-6-carboxylic acid pyridin-4-ylmethyl ester] | ≤ 300
10 | > 100000 | COc1cccc(CCC(=O)Nc2sc3c(c2C#N)CCN(C(=O)OCCc2ccccn2)C3)c1 [Example 38, 3-Cyano-2-[3-(3-methoxy-phenyl)-propanoylamino]-4,7-dihydro-5H-thieno[2,3-c]pyridine-6-carboxylic acid 2-pyridin-2-yl-ethyl ester] | 300 to 2000
11 | > 100000 | CCOC(=O)N1CCc2c(sc(NC(=O)CCc3ccccc3OC(F)(F)F)c2C#N)C1 [Example 39, 3-Cyano-2-[3-(2-trifluoromethoxy-phenyl)-propanoylamino]-4,7-dihydro-5H-thieno[2,3-c]pyridine-6-carboxylic acid ethyl ester] | ≤ 300
12 | > 100000 | CCOc1ccccc1CCC(=O)Nc1sc2c(c1C#N)CCN(C(=O)OCCOC)C2 [Example 40, 3-Cyano-2-[3-(2-ethoxy-phenyl)-propanoylamino]-4,7-dihydro-5H-thieno[2,3-c]pyridine-6-carboxylic acid 2-methoxy-ethyl ester] | ≤ 300
13 | > 100000 | CCOc1ccccc1CCC(=O)Nc1sc2c(c1C#N)CCN(C(=O)OCc1ccccn1)C2 [Example 41, 3-Cyano-2-[3-(2-ethoxy-phenyl)-propanoylamino]-4,7-dihydro-5H-thieno[2,3-c]pyridine-6-carboxylic acid pyridin-2-ylmethyl ester] | ≤ 300
14 | > 100000 | CCOc1ccccc1CCC(=O)Nc1sc2c(c1C#N)CCN(C(=O)OCc1cccnc1)C2 [Example 42, 3-Cyano-2-[3-(2-ethoxy-phenyl)-propanoylamino]-4,7-dihydro-5H-thieno[2,3-c]pyridine-6-carboxylic acid pyridin-3-ylmethyl ester] | ≤ 300
15 | ≥ 40000 | CCOc1ccccc1CCC(=O)Nc1sc2c(c1C#N)CCN(C(=O)OCc1ccncc1)C2 [Example 43, 3-Cyano-2-[3-(2-ethoxy-phenyl)-propanoylamino]-4,7-dihydro-5H-thieno[2,3-c]pyridine-6-carboxylic acid pyridin-4-ylmethyl ester] | ≤ 300
16 | > 100000 | CCOc1ccccc1CCC(=O)Nc1sc2c(c1C#N)CCN(C(=O)OCCc1ccccn1)C2 [Example 44, 3-Cyano-2-[3-(2-ethoxy-phenyl)-propanoylamino]-4,7-dihydro-5H-thieno[2,3-c]pyridine-6-carboxylic acid 2-pyridin-2-yl-ethyl ester] | ≤ 300
17 | > 100000 | COCCOC(=O)N1CCc2c(sc(NC(=O)CCc3cccc(OC)c3)c2C#N)C1 [Example 45, 3-Cyano-2-[3-(3-methoxy-phenyl)-propanoylamino]-4,7-dihydro-5H-thieno[2,3-c]pyridine-6-carboxylic acid 2-methoxy-ethyl ester] | ≤ 300
18 | > 100000 | COc1ccc(OC)c(CCC(=O)Nc2sc3c(c2C#N)CCN(C(=O)OCCO)C3)c1 [Example 46, 3-Cyano-2-[3-(2,5-dimethoxy-phenyl)-propanoylamino]-4,7-dihydro-5H-thieno[2,3-c]pyridine-6-carboxylic acid 2-hydroxy-ethyl ester] | 300 to 2000
19 | > 100000 | COc1ccc(C)cc1CCC(=O)Nc1sc2c(c1C#N)CCN(C(=O)OCCc1ccccn1)C2 [Example 48, 3-Cyano-2-[3-(2-methoxy-5-methyl-phenyl)-propanoylamino]-4,7-dihydro-5H-thieno[2,3-c]pyridine-6-carboxylic acid 2-pyridin-2-yl-ethyl ester] | 300 to 2000
20 | > 100000 | COc1ccc(OC)c(CCC(=O)Nc2sc3c(c2C#N)CCN(C(=O)OCc2cccnc2)C3)c1 [Example 50, 3-Cyano-2-[3-(2,5-dimethoxy-phenyl)-propanoylamino]-4,7-dihydro-5H-thieno[2,3-c]pyridine-6-carboxylic acid pyridin-3-ylmethyl ester] | 300 to 2000
21 | > 100000 | COc1ccc(C)cc1CCC(=O)Nc1sc2c(c1C#N)CCN(C(=O)OCc1cccnc1)C2 [Example 51, 3-Cyano-2-[3-(2-methoxy-5-methyl-phenyl)-propanoylamino]-4,7-dihydro-5H-thieno[2,3-c]pyridine-6-carboxylic acid pyridin-3-ylmethyl ester] | ≤ 300
22 | > 100000 | COc1ccc(C)cc1CCC(=O)Nc1sc2c(c1C#N)CCN(C(=O)OCC(O)CO)C2 (stereo not shown) [Example 52, 3-Cyano-2-[3-(2-methoxy-5-methyl-phenyl)-propanoylamino]-4,7-dihydro-5H-thieno[2,3-c]pyridine-6-carboxylic acid 2,3-dihydroxy-propyl ester] | 300 to 2000
23 | > 100000 | COc1cccc(CCC(=O)Nc2sc3c(c2C#N)CCN(C(=O)OCCO)C3)c1 [Example 53, 3-Cyano-2-[3-(3-methoxy-phenyl)-propanoylamino]-4,7-dihydro-5H-thieno[2,3-c]pyridine-6-carboxylic acid 2-hydroxy-ethyl ester] | 300 to 2000
